From US20080167532A1, “ASSESSING CANCER TREATMENT RESPONSIVENESS” (Mayo Foundation for Medical Education and Research, priority 2006, published 2008) come the findings set out here.

“Also recorded” adds a separate entry of the source.

Test [1] has as its system DRO cells. Description: Western blot of RhoB, RhoA, p21, cyclin E polypeptides in DRO cells. The class given is cell-based, human. The procedure: RhoB and p21^WAF1/CIP1 polypeptide expression also was examined in ATC cells to determine the time course of induction of each polypeptide following stimulation with a PPARγ agonist (FIG. 6). […]. Polypeptide lysates were prepared and examined for RhoB, RhoA and β-actin expression. […]; FIG. 6A).
The time course for induction of RhoB and p21^WAF1/CIP1 was determined using Western blotting.
DRO90-1 (DRO) and ARO81 (ARO) cells were derived from primary cultures of human anaplastic thyroid carcinoma tumors that were obtained from Dr. G. J. Juillard (University of California-Los Angeles, Los Angeles, Calif.), and KTC-2 and KTC3 cells were obtained from Dr. Junichi Kurebayashi (Podtcheko et al., J. Clin. Endocrinol. Metab., 88:1889-1896 (2003) and Pushkarev et al., Molecular mechanisms of the Effects of Low Concentrations of Taxol in Anaplastic Thyroid Cancer Cells. Endocrinology: en. 2004-0127 (2004)). Cells were cultured in RPMI 1640 medium (Cellgro, Herndon Va.) supplemented with 10% charcoal-stripped fetal bovine serum (Hyclone), non-essential amino acids, sodium pyruvate, and penicillin-streptomycin-amphotericin B at 37° C. in a humidified atmosphere with 5% CO^2. Charcoal-stripped serum was used to exclude endogenous PPAR ligands contained in serum. For proliferation studies, cells were plated in triplicate in 12-well culture plates at initial concentrations of 2×10^4 cells/well. After overnight incubation, cells were treated with 10 nM RS5444 or DMSO diluent (Sigma) for 6 days with medium, and drug changed every 48 hours. After 6 days, cells were washed with PBS (Cellgro), trypsinized, and counted by Beckman Coulter Counter (Beckman Instruments, Fullerton Calif.). For morphology studies, cells were plated in 12 well plates at initial concentrations of 2.5×10^4 cells/well. Cells were treated with either DMSO or 10 nM RS5444 (24 hours). After treatment, phase images were obtained on an inverted microscope. For real time PCR studies, cells were plated in 60 mm plates at 50% confluence and treated with 10 nM RS5444 for indicated incubation periods. […].
Cells were collected and lysed in RIPA buffer containing 50 mM Tris, 5 mM EDTA, 150 mM NaCl, 0.1% SDS, 0.5% Deoxycholate, 1% NP40, and protease inhibitor cocktail (Roche) followed by centrifugation. Excised tumor tissues were lysed in 50 mM Tris pH 8.0+1% SDS. Collected supernatants were, analyzed for protein concentration using Pierce's BCA assay, with 25 μg protein loaded per gel lane (Invitrogen) with later transfer to Immobilon-P membranes. The membranes were hybridized with antibodies (Santa Cruz, Cell Signaling, Sigma-Aldrich, St. Louis Mo.) as indicated overnight at 4° C. followed by treatment with species-specific horseradish peroxidase IgG (Jackson labs) for 45 minutes at room temperature. Detection was performed using Supersignal West Pico chemoluminescence kit (Pierce). Quantification of bands was performed in triplicate using Image Quant 5.2 (Molecular Dynamics, Sunnyvale Calif.).
Background: Immunoblotting shows a protein as a band on a membrane.

In test [2] the test system is DRO cells. Put plainly: Clonogenic growth of DRO cells in soft agar. The conditions noted are these: two weeks. Type of test: cell-based, human. The method, then:
The ability of RS5444 to inhibit clonogenic growth of DRO cells in soft agar was also examined (FIG. 3C). DRO cells were plated in triplicate on soft agar for colony formation and treated with the indicated doses of RS5444. Colonies were stained and counted after two weeks.

For a further test, the target named is T1, PPARγ (Homo sapiens, UniProt P37231).
T1 sequence (P37231 1-505): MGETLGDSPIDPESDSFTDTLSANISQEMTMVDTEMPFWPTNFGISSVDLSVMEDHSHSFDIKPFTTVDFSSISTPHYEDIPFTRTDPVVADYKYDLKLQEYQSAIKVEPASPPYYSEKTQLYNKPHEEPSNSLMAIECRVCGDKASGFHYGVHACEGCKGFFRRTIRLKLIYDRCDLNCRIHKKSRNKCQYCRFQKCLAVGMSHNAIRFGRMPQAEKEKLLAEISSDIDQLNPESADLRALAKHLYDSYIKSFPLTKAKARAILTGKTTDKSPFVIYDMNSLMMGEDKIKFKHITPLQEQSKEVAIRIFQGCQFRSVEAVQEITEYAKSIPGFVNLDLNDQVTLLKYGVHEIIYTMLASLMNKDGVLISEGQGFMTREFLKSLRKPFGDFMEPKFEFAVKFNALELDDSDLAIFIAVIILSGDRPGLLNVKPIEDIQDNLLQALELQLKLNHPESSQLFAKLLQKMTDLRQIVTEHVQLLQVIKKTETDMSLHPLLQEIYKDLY
Put plainly: PPAR isoform luciferase reporter in transfected RIE cells. Type of test: cell-based. Details: expressed in transfected cells; host or cells: RIE (rat small intestinal cell line). The note with it: RIE cells transfected with PPARγ and PPRE3-tk-luc, 10 nM. The text has this:
Increased luciferase activity was only observed in the presence of PPARγ and PPRE3-tk-luc.
For orientation: Reporter assays use an easily measured gene product as a stand-in for the process of interest.

The next test deals with DRO. Description: ATC (DRO) tumor growth in athymic nude mice, RS5444 in diet. The note with it: for tumor growth inhibition: started one week prior to DRO implantation. The class given is in vivo. The method, then:
RS5444 was added to the rodent diet one week prior to tumor implantation with DRO. […] Suspensions of 1×10^6/0.1 mL DRO or ARO cells in RPMI medium were injected subcutaneously in one flank of 3 to 4 week old athymic female nude mice. […] Mice weighed between 20-25 grams and consumed on average 4 grams of food per day (1 mg/day of RS5444).

`Cc1cc(Oc2ccc3nc(COc4ccc(CC5SC(=O)NC5=O)cc4)n(C)c3c2)cc(C)c1N` (centres unmarked) [RS5444]: in the test on DRO cells [1] (10 nM RS5444), the “RhoA polypeptide expression (Western blot)” value is given as “no change in RhoA polypeptide expression; also recorded: no change in RhoA polypeptide levels”. The “Cyclin E levels (Western blot)” value in the test on DRO cells [1] (10 nM, at 24 hours, not at earlier time points) was “down-regulated”. Further, the “RhoB polypeptide level, time course (Western blot)” value with DRO cells [1] (10 nM, up to 24 hours) is given as “significantly elevated at 6 hours”. For the same molecule, the “p21WAF1/CIP1 polypeptide level, time course (Western blot)” value in the test with DRO cells [1] (10 nM, up to 24 hours) is recorded as “significantly elevated at 6 hours”. Moreover, in the test on DRO cells [1] (24 hours after single treatment, 10 nM RS5444, 100 nM rosiglitazone, 1 μM troglitazone), the “RhoB polypeptide levels (Western blot)” value is “induced most strongly; also recorded: induced RhoB polypeptide levels”. For the same molecule, in the test on DRO cells [1] (24 hours, 10 nM RS5444, 1 ng/mL FK-228, 10 μM FTI-277), the “RhoB and p21 expression (Western blot)” value was “upregulation of both RhoB and p21 expression”. In addition, the “inhibition of colony formation in soft agar” value in the test with DRO cells [2] (1 nM) came to 63%; in the test on DRO cells [2] (10 nM) it was 98%; in the test on DRO cells [2] (100 nM) it was 99.4%. The “activation of PPARγ (luciferase activity)” value on PPARγ is reported as “specifically activates PPARγ”. Also, the tumor growth inhibition result with DRO (0.00025% in diet) was “No inhibition of tumor growth”; with DRO (0.0025% in diet) it was 54.5%; in the test with DRO (0.025% in diet), 89.7%. The “mice that did not form tumors” value with DRO (0.025% diet group) was 5 of 10.
